What was measured:
total HDAC enzyme = assay: In vitro inhibition of total HDAC enzyme activity (BIOMOL HDAC Fluorimetric Assay/Drug Discovery Kit, HeLa extract); assay type: biochemical
Procedure: Measurement of In Vitro Inhibition of Total HDAC Enzyme Activity:
The in vitro inhibition of total HDAC enzyme was determined by HDAC Fluorimetric Assay/Drug Discovery Kit (BIOMOL) according to manufacture's instruction. • 1. Add Assay buffer, diluted trichostatin A or test inhibitor to appropriate wells of the microtiter plate. Following table lists examples of various assay types and the additions required for each test.
• 2. Add diluted HeLa extract or other HDAC sample to all wells except those that are to be “No Enzyme Controls” (Blank). • 3. Allow diluted Fluor de LYS™ Substrate and the samples in the microtiter plate to equilibrate to assay temperature (25° C.). • 4. Initiate HDAC reactions by adding diluted substrate (25 μl) to each well and mixing thoroughly. • 5. Allow HDAC reactions to proceed for desired length of time and then stop them by addition of Fluor de Lys™ Developer (50 μl). Incubate plate at room temperature (25° C.) for 10-15 min. • 6. Read samples in a microtiter-plate reading fluorimeter capable of excitation at a wavelength in the range 350-380 nm and detection of emitted light in the range 440-460 nm. Measurement of In Vivo Inhibition of HDAC Subtype Activity: […]

HDAC Class I = assay: P21 reporter gene assay in HeLa cells; assay type: cell-based; details: relative to SAHA, 24 hours
Procedure: (§1) HDAC subtype selectivity inhibition assay of tested compounds was carried out by several reporter gene assays experiments. Briefly, HeLa cells were seeded in 96-well plates the day before transfection to give a confluence of 50-80%. Cells were transfected with one of reporter gene plasmids containing a promoter sequences or response elements upstream of a luciferase gene construct using FuGene6 transfection reagent according to the manufacturer's instructions (Roche). The promoter or response elements including p21-promoter, gdf11-promoter, serum response element (SRE), MEF-binding element were fused upstream to the luciferase gene reporter construct. For normalizing the transfection efficiency, a GFP expression plasmid was cotransfected. Cells were allowed to express protein for 24 hours followed by addition of individual compounds or the vehicle (DMSO). 24 hours later the cells were harvested, and the luciferase assays were performed using the luciferase assay kit according to the manufacturer's instructions (Promega). To normalize the data from the luciferase assays, β-galactosidase activity from transfected cells was measured using a kit (Promega) as instructed by the manufacturer.

HDAC7 = target: T1, HDAC7 (Homo sapiens, UniProt Q8WUI4); assay: Nur77 reporter gene assay in HeLa cells; assay type: cell-based; details: for activation at 10 µM: HeLa, 24 h, read-out: % of SAHA Response for HDAC7 at 10 μM (Nur77 reporter gene)
T1 construct: endogenous in cells; host or cells: HeLa
T1 sequence (Q8WUI4 1-952): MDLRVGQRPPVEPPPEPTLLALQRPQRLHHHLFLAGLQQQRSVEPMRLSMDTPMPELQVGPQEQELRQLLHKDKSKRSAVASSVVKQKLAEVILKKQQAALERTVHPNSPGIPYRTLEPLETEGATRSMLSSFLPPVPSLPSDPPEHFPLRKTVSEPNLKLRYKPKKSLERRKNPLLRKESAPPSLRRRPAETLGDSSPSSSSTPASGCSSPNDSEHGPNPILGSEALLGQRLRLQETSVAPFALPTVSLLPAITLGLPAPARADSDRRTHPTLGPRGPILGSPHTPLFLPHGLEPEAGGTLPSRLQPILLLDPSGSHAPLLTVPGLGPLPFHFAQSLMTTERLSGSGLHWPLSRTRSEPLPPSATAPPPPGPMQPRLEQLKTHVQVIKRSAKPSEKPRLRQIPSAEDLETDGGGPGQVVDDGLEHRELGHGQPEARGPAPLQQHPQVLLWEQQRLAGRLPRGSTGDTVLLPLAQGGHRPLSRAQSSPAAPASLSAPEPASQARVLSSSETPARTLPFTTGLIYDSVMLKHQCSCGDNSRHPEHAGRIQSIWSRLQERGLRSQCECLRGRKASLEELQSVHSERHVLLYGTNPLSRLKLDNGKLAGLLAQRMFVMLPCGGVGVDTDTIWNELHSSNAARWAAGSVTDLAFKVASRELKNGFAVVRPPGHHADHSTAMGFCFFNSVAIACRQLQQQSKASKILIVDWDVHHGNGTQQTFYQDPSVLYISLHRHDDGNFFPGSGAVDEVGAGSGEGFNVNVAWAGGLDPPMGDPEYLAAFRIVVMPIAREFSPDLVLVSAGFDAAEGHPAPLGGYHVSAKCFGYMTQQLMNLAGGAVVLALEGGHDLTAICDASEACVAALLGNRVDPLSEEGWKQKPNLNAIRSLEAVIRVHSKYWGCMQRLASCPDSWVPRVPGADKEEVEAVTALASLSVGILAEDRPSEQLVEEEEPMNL
Procedure: as §1

HDAC3 = target: T2, HDAC3 (Homo sapiens, UniProt O15379); assay: gdf11 reporter gene assay in HeLa cells; assay type: cell-based; details: for activation at 10 µM: HeLa, 24 h, read-out: % of SAHA Response for HDAC3 at 10 μM (gdf11 reporter gene)
T2 construct: endogenous in cells; host or cells: HeLa
T2 sequence (O15379 whole entry): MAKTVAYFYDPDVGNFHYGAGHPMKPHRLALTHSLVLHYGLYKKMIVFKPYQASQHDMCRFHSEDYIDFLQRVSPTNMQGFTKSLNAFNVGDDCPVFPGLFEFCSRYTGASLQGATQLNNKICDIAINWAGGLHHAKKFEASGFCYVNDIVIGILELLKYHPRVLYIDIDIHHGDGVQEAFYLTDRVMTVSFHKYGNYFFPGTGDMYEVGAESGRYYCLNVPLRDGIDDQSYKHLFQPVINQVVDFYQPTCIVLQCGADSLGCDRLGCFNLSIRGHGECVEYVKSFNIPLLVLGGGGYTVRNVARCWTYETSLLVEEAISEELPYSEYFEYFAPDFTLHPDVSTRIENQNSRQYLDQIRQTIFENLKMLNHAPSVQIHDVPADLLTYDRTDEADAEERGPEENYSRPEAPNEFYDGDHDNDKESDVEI
T2 sequence (Q9Y618 whole entry partner): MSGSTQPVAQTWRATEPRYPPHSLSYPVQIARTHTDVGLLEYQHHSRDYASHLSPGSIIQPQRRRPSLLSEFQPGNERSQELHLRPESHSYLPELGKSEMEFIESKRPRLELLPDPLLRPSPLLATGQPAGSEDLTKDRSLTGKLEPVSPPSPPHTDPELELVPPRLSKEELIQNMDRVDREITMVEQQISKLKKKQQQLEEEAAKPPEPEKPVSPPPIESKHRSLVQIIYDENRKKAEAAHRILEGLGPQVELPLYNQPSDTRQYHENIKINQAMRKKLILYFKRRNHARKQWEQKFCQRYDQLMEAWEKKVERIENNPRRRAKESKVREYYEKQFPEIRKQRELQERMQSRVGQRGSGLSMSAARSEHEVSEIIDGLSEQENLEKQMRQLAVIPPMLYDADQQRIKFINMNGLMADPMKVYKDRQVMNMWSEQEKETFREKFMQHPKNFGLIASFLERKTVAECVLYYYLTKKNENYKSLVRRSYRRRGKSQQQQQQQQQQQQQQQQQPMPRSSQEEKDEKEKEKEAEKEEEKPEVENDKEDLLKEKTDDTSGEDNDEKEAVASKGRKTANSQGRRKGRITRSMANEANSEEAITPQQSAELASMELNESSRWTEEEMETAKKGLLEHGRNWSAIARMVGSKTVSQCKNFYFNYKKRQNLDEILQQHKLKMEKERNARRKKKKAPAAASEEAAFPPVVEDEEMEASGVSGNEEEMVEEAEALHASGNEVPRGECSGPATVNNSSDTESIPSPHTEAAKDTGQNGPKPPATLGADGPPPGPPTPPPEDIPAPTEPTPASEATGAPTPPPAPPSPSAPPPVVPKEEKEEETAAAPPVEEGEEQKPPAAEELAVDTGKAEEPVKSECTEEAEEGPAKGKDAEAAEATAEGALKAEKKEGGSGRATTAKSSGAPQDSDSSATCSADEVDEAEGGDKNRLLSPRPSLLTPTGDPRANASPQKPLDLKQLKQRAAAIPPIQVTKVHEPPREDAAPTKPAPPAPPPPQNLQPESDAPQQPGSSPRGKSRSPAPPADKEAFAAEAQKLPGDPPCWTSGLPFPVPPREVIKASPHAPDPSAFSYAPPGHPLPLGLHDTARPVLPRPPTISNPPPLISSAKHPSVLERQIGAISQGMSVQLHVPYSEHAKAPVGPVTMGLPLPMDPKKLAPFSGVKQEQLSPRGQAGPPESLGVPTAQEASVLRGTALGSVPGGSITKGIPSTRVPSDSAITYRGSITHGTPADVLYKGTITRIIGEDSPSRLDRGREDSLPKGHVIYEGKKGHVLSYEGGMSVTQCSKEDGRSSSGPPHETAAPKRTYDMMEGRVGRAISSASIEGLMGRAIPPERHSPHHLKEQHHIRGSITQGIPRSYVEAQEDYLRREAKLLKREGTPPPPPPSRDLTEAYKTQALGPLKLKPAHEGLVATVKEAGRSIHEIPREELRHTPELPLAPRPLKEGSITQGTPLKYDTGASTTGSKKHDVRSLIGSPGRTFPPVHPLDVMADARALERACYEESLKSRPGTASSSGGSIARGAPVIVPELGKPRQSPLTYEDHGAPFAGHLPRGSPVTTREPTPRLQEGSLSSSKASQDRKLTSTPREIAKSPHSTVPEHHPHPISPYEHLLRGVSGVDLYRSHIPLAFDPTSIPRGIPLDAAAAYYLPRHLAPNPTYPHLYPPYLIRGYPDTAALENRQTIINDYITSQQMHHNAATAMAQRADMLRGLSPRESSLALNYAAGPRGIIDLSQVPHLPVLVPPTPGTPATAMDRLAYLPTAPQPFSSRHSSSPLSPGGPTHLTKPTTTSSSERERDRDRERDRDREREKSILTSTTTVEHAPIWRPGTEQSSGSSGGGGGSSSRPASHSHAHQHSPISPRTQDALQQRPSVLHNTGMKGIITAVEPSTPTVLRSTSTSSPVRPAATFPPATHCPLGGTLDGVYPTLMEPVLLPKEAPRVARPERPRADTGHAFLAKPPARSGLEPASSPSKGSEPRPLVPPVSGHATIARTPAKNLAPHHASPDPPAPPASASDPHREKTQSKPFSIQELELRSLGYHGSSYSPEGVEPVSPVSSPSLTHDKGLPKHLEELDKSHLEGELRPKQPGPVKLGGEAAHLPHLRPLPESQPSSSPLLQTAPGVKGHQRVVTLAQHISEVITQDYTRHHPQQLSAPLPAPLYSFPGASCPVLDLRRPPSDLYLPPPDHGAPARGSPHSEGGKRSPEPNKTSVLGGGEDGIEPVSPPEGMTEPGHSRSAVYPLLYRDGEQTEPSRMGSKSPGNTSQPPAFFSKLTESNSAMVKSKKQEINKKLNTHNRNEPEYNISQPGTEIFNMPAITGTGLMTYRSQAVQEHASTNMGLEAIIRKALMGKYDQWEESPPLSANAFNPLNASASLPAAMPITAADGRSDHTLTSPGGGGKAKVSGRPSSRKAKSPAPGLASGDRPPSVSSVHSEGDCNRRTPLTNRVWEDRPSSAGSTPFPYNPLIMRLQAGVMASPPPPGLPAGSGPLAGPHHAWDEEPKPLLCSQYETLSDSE
Procedure: as §1

HDAC4/5 = assay: MEF2 reporter gene assay in HeLa cells; assay type: cell-based; details: relative to SAHA, 24 hours
Procedure: as §1

HeLa = assay: Cell proliferation (MTS), HeLa; assay type: cell-based; details: Homo sapiens, 72 hours
Procedure: (§2) Measurement of In Vivo Cell Proliferation:
(§3) Tumor cells were trypsinized and plated into 96-well plates at 3,000 per well and incubated in complete medium with 10% FBS for 24 hours. Compounds were added over a final concentration range of 100 μmol/L to 100 nmol/L in 0.1% DMSO and incubated for 72 hours in complete medium. The effects on proliferation were determined by addition of MTS reagent (Promega) according to the instruction, incubation for 2 hours at 37° C. in CO2 incubator, and record the absorbance at 490 nm using an ELISA plate reader.

HL60 = assay: Cell proliferation (MTS), HL60; assay type: cell-based; details: Homo sapiens, HL-60, 72 hours
Procedure: as §2, §3

A549 = assay: Cell proliferation (MTS), A549; assay type: cell-based; details: Homo sapiens, 72 hours
Procedure: as §2, §3

Hut-78 = assay: Cell proliferation (MTS), Hut-78; assay type: cell-based; details: Homo sapiens, HuT78, 72 hours
Procedure: as §2, §3

SMILES: Nc1cc(F)ccc1NC(=O)CCCCCCCNC(=O)C=C1c2ccccc2-c2ccccc21 [Example 27, 8-(2-(9H-fluoren-9-ylidene)acetamido)-N-(2-amino-4-fluorophenyl)octanamide]
- % of Inhibition on total HDAC enzyme at 30 μM (total HDAC enzyme): 42.3%
- % of SAHA Response for HDAC Class I at 10 μM (P21 reporter gene) (HDAC Class I): 18%
- activation at 10 µM (HDAC7): 7%
- activation at 10 µM (HDAC3): 12%
- % of SAHA Response for HDAC4/5 at 10 μM (MEF2 reporter gene) (HDAC4/5): 16%

SMILES: O=C(C=C1c2ccccc2-c2ccccc21)NCCCCCC(=O)NO [Example 11, 6-(2-(9H-fluoren-9-ylidene)acetamido)-N-hydroxyhexanamide]
- % of Inhibition on total HDAC enzyme at 30 μM (total HDAC enzyme): 99%
- GI50 (HeLa): 0.52 µM
- GI50 (HL60): < 0.1 µM
- GI50 (A549): 2.34 µM
- % of SAHA Response for HDAC Class I at 10 μM (P21 reporter gene) (HDAC Class I): 77%
- GI50 (Hut-78): < 0.1 µM

SMILES: Nc1ccccc1NC(=O)CCCCNC(=O)C=C1c2ccccc2-c2ccccc21 [Example 7, 5-(2-(9H-fluoren-9-ylidene)acetamido)-N-(2-aminophenyl)pentanamide]
- % of Inhibition on total HDAC enzyme at 30 μM (total HDAC enzyme): 42%
- % of SAHA Response for HDAC Class I at 10 μM (P21 reporter gene) (HDAC Class I): 49%
- activation at 10 µM (HDAC7): 19%
- activation at 10 µM (HDAC3): 36%
- % of SAHA Response for HDAC4/5 at 10 μM (MEF2 reporter gene) (HDAC4/5): 31%

SMILES: Cc1ccc(NC(=O)CCCCCNC(=O)C=C2c3ccccc3-c3ccccc32)c(N)c1 [Example 15, 6-(2-(9H-fluoren-9-ylidene)acetamido)-N-(2-amino-4-methylphenyl)hexanamide]
- % of Inhibition on total HDAC enzyme at 30 μM (total HDAC enzyme): 42.4%
- % of SAHA Response for HDAC Class I at 10 μM (P21 reporter gene) (HDAC Class I): 21%
- activation at 10 µM (HDAC7): 4%
- activation at 10 µM (HDAC3): 14%
- % of SAHA Response for HDAC4/5 at 10 μM (MEF2 reporter gene) (HDAC4/5): 15%

SMILES: COc1ccc(NC(=O)CCCCCNC(=O)C=C2c3ccccc3-c3ccccc32)c(N)c1 [Example 16, 6-(2-(9H-fluoren-9-ylidene)acetamido)-N-(2-amino-4-methoxyphenyl)hexanamide]
- % of Inhibition on total HDAC enzyme at 30 μM (total HDAC enzyme): 29.2%
- % of SAHA Response for HDAC Class I at 10 μM (P21 reporter gene) (HDAC Class I): 21%
- activation at 10 µM (HDAC7): 10%
- activation at 10 µM (HDAC3): 12%
- % of SAHA Response for HDAC4/5 at 10 μM (MEF2 reporter gene) (HDAC4/5): 27%

SMILES: Nc1cc(F)ccc1NC(=O)CCCCNC(=O)C=C1c2ccccc2-c2ccccc21 [Example 8, 5-(2-(9H-fluoren-9-ylidene)acetamido)-N-(2-amino-4-fluorophenyl)pentanamide]
- % of Inhibition on total HDAC enzyme at 30 μM (total HDAC enzyme): 31.7%
- % of SAHA Response for HDAC Class I at 10 μM (P21 reporter gene) (HDAC Class I): 16%
- activation at 10 µM (HDAC7): 7%
- activation at 10 µM (HDAC3): 10%
- % of SAHA Response for HDAC4/5 at 10 μM (MEF2 reporter gene) (HDAC4/5): 30%

SMILES: Nc1ccccc1NC(=O)CCCCCCCNC(=O)C=C1c2ccccc2-c2ccccc21 [Example 28, 8-(2-(9H-fluoren-9-ylidene)acetamido)-N-(2-aminophenyl)octanamide]
- % of Inhibition on total HDAC enzyme at 30 μM (total HDAC enzyme): 48%
- % of SAHA Response for HDAC Class I at 10 μM (P21 reporter gene) (HDAC Class I): 62%
- activation at 10 µM (HDAC7): 20%
- activation at 10 µM (HDAC3): 33%
- % of SAHA Response for HDAC4/5 at 10 μM (MEF2 reporter gene) (HDAC4/5): 38%

SMILES: Nc1cc(Cl)ccc1NC(=O)CCCCCNC(=O)C=C1c2ccccc2-c2ccccc21 [Example 14, 6-(2-(9H-fluoren-9-ylidene)acetamido)-N-(2-amino-4-chlorophenyl)hexanamide]
- % of SAHA Response for HDAC Class I at 10 μM (P21 reporter gene) (HDAC Class I): 13%
- activation at 10 µM (HDAC7): 4%
- activation at 10 µM (HDAC3): 6%
- % of SAHA Response for HDAC4/5 at 10 μM (MEF2 reporter gene) (HDAC4/5): 9%

SMILES: O=C(CCCCCCC(=O)Nc1ccccc1)NO [SAHA, suberoylanilide hydroxamic acid, reference compound]
- % of SAHA Response for HDAC Class I at 10 μM (P21 reporter gene) (HDAC Class I): 100%
- % of SAHA Response for HDAC7 at 10 μM (Nur77 reporter gene) (HDAC7): 100%
- % of SAHA Response for HDAC3 at 10 μM (gdf11 reporter gene) (HDAC3; 10 μM, relative to SAHA, HeLa cells, 24 hours): 100%
- % of SAHA Response for HDAC4/5 at 10 μM (MEF2 reporter gene) (HDAC4/5): 100%

SMILES: Nc1cc(C(F)(F)F)ccc1NC(=O)CCCCCNC(=O)C=C1c2ccccc2-c2ccccc21 [Example 17, 6-(2-(9H-fluoren-9-ylidene)acetamido)-N-(2-amino-4-trifluoromethylphenyl)hexanamide]
- % of Inhibition on total HDAC enzyme at 30 μM (total HDAC enzyme): 24.1%
- % of SAHA Response for HDAC Class I at 10 μM (P21 reporter gene) (HDAC Class I): 12%
- activation at 10 µM (HDAC7): 7%
- activation at 10 µM (HDAC3): 7%
- % of SAHA Response for HDAC4/5 at 10 μM (MEF2 reporter gene) (HDAC4/5): 21%

SMILES: O=C(C=C1c2ccccc2-c2ccccc21)NCCCCCCCC(=O)NO [Example 26, 8-(2-(9H-fluoren-9-ylidene)acetamido)-N-hydroxyoctanamide]
- % of Inhibition on total HDAC enzyme at 30 μM (total HDAC enzyme): 99.3%
- % of SAHA Response for HDAC Class I at 10 μM (P21 reporter gene) (HDAC Class I): 61%
- activation at 10 µM (HDAC7): 89%
- activation at 10 µM (HDAC3): 70%
- % of SAHA Response for HDAC4/5 at 10 μM (MEF2 reporter gene) (HDAC4/5): 87%
